Consider one compound from patent publication US4789587A, “(1,3-dioxolan-2-yl-methyl)-1H-imidazoles as bactericidal and/or fungicidal agents” (IRE-Celltarg, S.A., priority 1986, dated 1988).

In brackets after ≈: the same amount, converted by molar mass. A value given as a limit tells only on which side of the number the result lay.

For data set [1], the system named is Candida albicans ATCCe 10231. As to the kind of experiment: minimum inhibiting concentration, microtitration in liquid medium, C. albicans. It is filed as cell-based. To be noted: ATCCE10231, RPMI + 20% foetal calf serum, overnight, inoculum 10^5 to 10^6 organisms/ml. As for the experimental part: (§1) The activity of the new derivatives according to the invention was tested in vitro by determining the minimum inhibiting concentration (MIC) of the molecules and their fungicidal (minimum fungicidal concentration MFC) or bactericidal (minimum bactericidal concentration MBC) activity. MFC and MBC are defined as the minimum dose which kills 99.9% of the organisms contained in the inoculum. Two species of yeasts pathogenic to man were used: Candida albicans ATCCe 10231 and Candida tropicalis ATCC 13803. Two species of bacteria were included in the screening: Staphylococcus aureus ATCC 25923 and Salmonella typhimurium LT2, strain Demerec. The MIC is determined after culturing overnight in a liquid medium, by the microtitration method in dishes containing 96 wells over a concentration range of 100 μM to 0.0008 μM. The inoculum contains 10^5 to 10^6 organisms/ml. The culture media consist on the one hand of RPMI to which 20% of foetal calf serum (inactivated for one hour at 56°) has been added in order to determine the fungistatic activity and Mueller-Hinton agar in order to determine the bacteriostatic power of the newly synthesized molecules on the other. The MFC and MBC for each of these molecules are obtained by subculturing a sample containing 10^3 organisms from each well giving negative results for the growth of the organisms, in a solid medium consisting of YM agar (yeasts) or Mueller-Hinton agar (bacteria) overnight at 37°.

Data set [2] concerns Candida tropicalis ATCC 13803. In words: minimum inhibiting concentration, microtitration in liquid medium, C. tropicalis. To be noted: ATCC13803, RPMI + 20% foetal calf serum, overnight, inoculum 10^5 to 10^6 organisms/ml. It is filed as cell-based. Here is the method: as §1
Data set [3] has as its system Staphylococcus aureus ATCC 25923. In words: minimum inhibiting concentration, microtitration in liquid medium, S. aureus. It is filed as cell-based. To be noted: ATCC25923, Mueller-Hinton, overnight, inoculum 10^5 to 10^6 organisms/ml, read-out: MIC S. aureus. As for the experimental part: as §1
Data set [4] concerns Salmonella typhimurium LT2, strain Demerec. In words: minimum inhibiting concentration, microtitration in liquid medium, S. typhimurium. It is filed as cell-based. To be noted: Salmonella enterica, Mueller-Hinton, overnight, inoculum 10^5 to 10^6 organisms/ml, read-out: MIC S. typhimurium. Here is the method:
as §1

For data set [5], the system named is Candida albicans ATCCe 10231. As to the kind of experiment: minimum fungicidal concentration, subculture on YM agar, C. albicans. It is filed as cell-based. To be noted: ATCCE10231, minimum dose which kills 99.9% of the organisms, YM agar, overnight at 37°, read-out: MFC C. albicans. Here is the method:
as §1

For data set [6], the system named is Candida tropicalis ATCC 13803. As to the kind of experiment: minimum fungicidal concentration, subculture on YM agar, C. tropicalis. It is filed as cell-based. To be noted: ATCC13803, minimum dose which kills 99.9% of the organisms, YM agar, overnight at 37°, read-out: MFC C. tropicalis. Here is the method: as §1
In data set [7] the test system is Staphylococcus aureus ATCC 25923. As to the kind of experiment: minimum bactericidal concentration, subculture on Mueller-Hinton agar, S. aureus. It is filed as cell-based. To be noted: ATCC25923, minimum dose which kills 99.9% of the organisms (MBC), overnight at 37°, read-out: MFC S. aureus. Here is the method:
as §1

Data set [8] is described as follows: resorption: plasma concentration in rats after gastric administration. It is filed as in vivo. To be noted: rat, po, 1000 umol/kg, 100 μmols/0.5 ml of DMSO per 100 g of body weight, Candida tropicalis inhibition zones vs ketoconazole standard curve, read-out: plasma concentration of the antifungal product. As for the experimental part:
100 μmols/0.5 ml of DMSO per 100 g of body weight of either ketoconazole (reference product) or oleylketoconazole (compound No. 7) are administered to rats by the gastric route. The animals are sacrificed with CO2, 1 h after the administration. Blood is sampled by cardiac puncture and centrifuged for 15 minutes at 2000 rpm to obtain the plasma.
A series of dilutions of the plasma samples are prepared in a 0.9% NaCl solution, diluting twice each time. 10 μl are sampled from each dilution and deposited on Whatman paper discs. The discs are placed in Petri dishes containing 15 ml of casitone agar covered with a layer containing 3 ml of a less dense agar mixed with 0.1 ml of an overnight culture of Candida tropicalis. After incubating overnight the growth inhibition zones around the disks are measured and compared with a standard curve prepared with ketoconazole under the same conditions.

For data set [9], the system named is Leydig tumor cells from mice (I-10, ATCC No. CCL83). As to the kind of experiment: in vitro synthesis of steroids: progesterone secretion by Leydig tumor cells induced by cAMP. It is filed as cell-based. To be noted: 9.4×10^-7 M. From the text: (§2) Ketoconazole and its derivatives reduce the plasma levels of testosterone by inhibiting certain enzymes involved in its biogenesis. Progesterone is a key intermediate in the biogenesis of steroid hormones as it leads especially to estradiol in the ovary and to testosterone in the testicles. The inhibiting power of ketoconazole and its derivatives on the enzyme chain for the biogenesis of steroid hormones may be assessed by measuring the conversion of cholesterol into progesterone. A method of determination which enables this property to be quantified is described below.
(§3) Leydig tumor cells from mice (I-10, ATCC No. CCL83) were grown in a HAM's F10 medium to which 15% of horse serum and 2.5% of foetal calf serum were added. These cells have the property of secreting progesterone and a product of reduction of the latter which is no longer metabolized, 20α-hydroxy-4-pregnen-3-one. This secretion of steroids is induced by the addition of cAMP in the form of its dibutyryl ester (N^6, O^2' -dibutyryladenosine 3', 5'-cyclic monophosphate sodium salt monohydrate (Sigma)). The cells are subcultured in 25 cm^2 falcon dishes and maintained under CO2 (10%). When these become confluent (±1 mg/ml proteins) the medium is replaced with fresh medium containing dibutyryl-cAMP (1×10^-4 M). After incubating for 1 hour with the cAMP, the ketoconazole or its derivatives are added (9.4×10^-7 M) to the culture medium. After incubating for a further period of 3 hours, the supernatants are collected and will be used for the analysis of steroids by HPLC. The cells are rinsed with PBS (phosphate buffered saline: NaCl 0.15M, KCl 2.7 mM, Na2 HPO4 -KH2 PO4 3 mM pH 7.4) and after treating with DOC (deoxycholic acid), the determination of proteins is carried out by the Lowry method.
(§4) For the determination of steroids, 2 ml of the culture medium are brought into contact with 5 ml of ether. The tubes are vortexed for 2 minutes. After freezing the aqueous phases in an isopropanol/solid carbon dioxide bath, the ether phase is collected and the ether is evaporated off under a stream of nitrogen at 30° C. The dry extract is then diluted in 150 μl of water and 150 μl of acetonitrile and centrifuged at 13,000 rpm for 10 minutes. 30 μl of the supernatant are injected into HPLC on a 4 mm diameter, 30 cm long μBondapack C18 column (WATERS). The mobile phase consists of 38% of water, 31% acetonitrile and 31% methanol. The flowrate is 2 ml/min and readings are taken at 245 nm.

Data set [10] shares this test system. In words: in vitro synthesis of steroids: 20α-hydroxy-4-pregnen-3-one secretion by Leydig tumor cells induced by cAMP. It is filed as cell-based. To be noted: 9.4×10^-7 M.
Excerpt: as §2, §3, §4

In the case of `CCCCCCCCC=CCCCCCCCC(=O)N1CCN(c2ccc(OCC3COC(Cn4ccnc4)(c4ccc(Cl)cc4Cl)O3)cc2)CC1` (stereo not drawn) [No. 7], the MIC in data set [1] is 10.2 µM; in data set [2], 8.78 µM; in data set [3], more than 100 µM; in data set [4] it was more than 100 µM. The MFC in data set [5] came to 125 µM (≈ 94.2 µg/mL); in [6], 250 µM (≈ 188 µg/mL). Also, in data set [7], the MBC was more than 100 µM. Moreover, the concentration at 1 h in data set [8] is 57.3 µM. The “Progesterone (1)” value in data set [9] (dibutyryl-cAMP 1×10^-4 M, 3 hours incubation with compound, control 3546, basal 554) was 2754 ng of steroids/mg of cell prot. The progesterone secretion, % of cAMP-induced control at 0.94 µM in [9] (Mus musculus, Leydig, relative to cells induced by cAMP in the absence of inhibitor, read-out: Progesterone (2) % enzyme activity relative to control) turned out to be 78%. In [10] (dibutyryl-cAMP 1×10^-4 M, 3 hours incubation with compound, control 1744, basal 785), the “20α-OH-4-pregnen-3-one (1)” value is listed as 1497 ng of steroids/mg of cell prot. For the same compound, the activity at 0.94 µM in data set [10] (Mus musculus, Leydig, relative to cells induced by cAMP in the absence of inhibitor, read-out: 20α-OH-4-pregnen-3-one (2) % enzyme activity relative to control) was determined as 86%.
